In patent publication US9567319B2, “Compound having higher inhibitory activity on protein kinase G and preparation method thereof” (Jenkem Technology Co., Ltd., (Tianjin), priority 2014, dated 2017):

Experiment: Test of water solubility of the compounds
Conditions: for Volume of added water: about 0.1 g sample, water added until dissolved; for water solubility, times higher than that of compound 46: relative to compound 46 (parent compound); for solubility: water
Protocol: At room temperature, about 0.1 g of each sample to be tested (solid materials should be ground as powder) was added to a 10 mL cylinder with a ground glass stopper. Water was gradually added. After each addition of 0.5 mL water, the resulting solution was stirred for 10 min for mixing, and was then visually examined for the presence of any undissolved sample. If there still exists undissolved sample or undissolved portions of the sample after 10 mL water was added, the test would be continued in a 100 mL cylinder.

Row | Structure (SMILES) | Volume of added water (room temperature) [mL] | solubility (thermodynamic from solid) [mg/mL] | water solubility, times higher than that of compound 46 | solubility (room temperature) [mg/mL]
1 | CCCOCCOCCOc1ccc(F)c(F)c1C(=O)c1ccc(C(=O)N[C@@H]2CNC[C@H]2NC(=O)c2ccc3cn[nH]c3c2)cc1.Cl [JK-02P, (3R,4R)-3-{4-[2,3-difluoro-6-(3,6-dioxanonan-1-oxy)]benzoyl}benzamido-4-(1H-indazole-6-carboxamido)pyrrolidine hydrochloride] | 22.5 | 4.4 | about 3 times | 
2 | COCCOCCOCCOc1ccc(F)c(F)c1C(=O)c1ccc(C(=O)N[C@@H]2CNC[C@H]2NC(=O)c2ccc3cn[nH]c3c2)cc1.Cl [JK-03M, (3R,4R)-3-{4-[2,3-difluoro-6-(2,5,8-trioxadecan-10-oxy)]benzoyl}benzamido-4-(1H-indazole-6-carboxamido)pyrrolidine hydrochloride] | 16.5 |  | about 4 times | 6.1
3 | COCCOCCOCCOCCOCCOCCOCCOc1ccc(OC)c(F)c1C(=O)c1ccc(C(=O)N[C@@H]2CNC[C@H]2NC(=O)c2ccc3cn[nH]c3c2)cc1.Cl [JK-M07M, (3R,4R)-3-{4-[2-fluoro-3-methoxy-6-(2,5,8,11,14,17,20-heptaoxadocosan-22-oxy)]benzoyl}benzamido-4-(1H-indazole-6-carboxamido)pyrrolidine hydrochloride] | 7.5 |  |  | 13.3

More lines, main results first:

Row | Volume of added water (room temperature) [mL] | solubility (thermodynamic from solid) [mg/mL] | Structure (SMILES) | water solubility, times higher than that of compound 46 | solubility (room temperature) [mg/mL]
4 | 12.5 | 8 | COc1ccc(OCCOCCO)c(C(=O)c2ccc(C(=O)N[C@@H]3CNC[C@H]3NC(=O)c3ccc4cn[nH]c4c3)cc2)c1F.Cl [JK-M02H, (3R,4R)-3-{4-[2-fluoro-3-methoxy-6-(5-hydroxy-3-oxapentan-1-oxy)]benzoyl}benzamido-4-(1H-indazole-6-carboxamido)pyrrolidine hydrochloride] |  | 
5 | 22.0 | 4.5 | CCCOCCOCCOc1ccc(OC)c(F)c1C(=O)c1ccc(C(=O)N[C@@H]2CNC[C@H]2NC(=O)c2ccc3cn[nH]c3c2)cc1.Cl [JK-M02P, (3R,4R)-3-{4-[2-fluoro-3-methoxy-6-(4,7-dioxanonan-9-oxy)]benzoyl}benzamido-4-(1H-indazole-6-carboxamido)pyrrolidine hydrochloride] |  | 
